Structures can show the parent of a compound that is named as a salt.
Columns and labels:
[1] = system: "epilepsy-like" discharges of pyramidal cells; assay: penicillin-induced "epileptic" hippocampus section preparation (electrophysiology); conditions: in vitro; concentration of 6 μM

Row | melting point | Compound | effect on "epilepsy-like" discharges of pyramidal cells [1]
1 | 226 to 228 °C | O=c1cc(CNC[C@H](O)CP(=O)(O)Cc2ccccc2)cc[nH]1 (as salt: hydrochloride) [Example 10, {2-(S)-hydroxy-3-[(2-oxo-1,2-dihydro-pyridin-4-ylmethyl)-amino]-propyl}-(benzyl)-phosphinic acid] | 
2 | 159 to 160 °C | COc1cc(CNC[C@H](O)CP(=O)(O)CC2CCCCC2)ccn1 (as salt: hydrochloride) [Example 2, {3-[(2-methoxy-4-pyridylmethyl)-amino]-2-(S)-hydroxy-propyl}-(cyclohexylmethyl)-phosphinic acid] | 
3 |  | NCC(CC(=O)O)c1ccc(Cl)cc1 (stereo not shown) [baclofen] | inhibits
4 | 192 to 195 °C | COc1cc(CNC[C@H](O)CP(=O)(O)Cc2ccccc2)ccn1 [Example 4, {3-[(2-methoxy-4-pyridylmethyl)-amino]-2-(S)-hydroxy-propyl}-(benzyl)phosphinic acid] | 

Reference: US7498319B2, “Phosphinic acid derivatives” (Novartis AG, priority 2003, dated 2009)
